The text below walks through data of patent US20250032437A1, “D-Serine Inhibits Neuroinflammation Due To A Brain Injury” (Florida State University Research Foundation, Inc., priority 2019, published 2025).

SMILES strings stand for the structures.

For the experiment, the system named is entorhinal cortex (neurons, astrocytes, microglia) of animals made epileptic with a chemo-convulsant. Put plainly: D-serine injected into the entorhinal area in an animal model of Temporal Lobe Epilepsy; neurons, astrocytes and microglia identified with fluorescent-tagged antibodies. It is filed as in vivo. As to the method: These cells cause inflammation in brain tissue by releasing cytokines. These neuroinflammatory cell types were identified using fluorescent-tagged antibodies first in control animals and then in animals that were made epileptic using a well-established animal model of Temporal Lobe Epilepsy. […] In a separate sample of animals, D-serine was injected into the entorhinal area prior to making them epileptic with a chemo-convulsant and immediately after administration of the chemo-convulsant.

Where [1] appears, read: D-serine injected into the entorhinal area, FIG. 2 vs FIG. 3.

Turning to `N[C@H](CO)C(=O)O` [D-serine], the “development of epilepsy after chemo-convulsant” value (D-serine injected into the entorhinal area prior to and immediately after administration of the chemo-convulsant) is listed as “did not become epileptic”. Moreover, under setting [1], the “astrocytes in the entorhinal region (GFAP)” value is reported as “fewer astrocytes” and the “neurons in the entorhinal cortex (NeuN) compared with the epileptic animals” value is “significant rescue of neurons”. Besides, under “D-serine injected into the entorhinal area, FIG. 7 vs FIG. 8”, the “infiltration of microglia to the entorhinal region (OX42)” value is given as “significantly reduced”.
